The results in this text go back to patent US20080312187A1, “PHOSPHOINOSITIDE MODULATION FOR THE TREATMENT OF ALZHEIMER'S DISEASE” (priority 2005, published 2008).

SMILES strings stand for the structures. “Also recorded” adds a separate entry of the source. Where two headings read alike, the source gives them in different places.

Assay [1] relates to Aβ42. The experiment in a line: Aβ42 biogenesis in HeLa cells overexpressing APPsw. As to conditions: HeLa cells stably overexpressing Swedish variant of human APP. It is filed as cell-based. An excerpt: (§1) FIG. 2A-E. Changes in PIP2 levels correlate with Aβ42 biogenesis. PIP2 levels (A) and Aβ42 biogenesis (D) in HeLa cells overexpressing human APPsw treated with either PLC inhibitor edelfosine (EDEL) or its active analog miltefosine (MILT). PIP2 levels (B) and Aβ42 biogenesis (E) in HeLa cells overexpressing human APPsw treated with PLC activator m-3m3FBS (M3M). (C) Modulation of PIP2 levels correlates with Aβ42 biogenesis. HeLa cells stably overexpressing the Swedish variant of human APP were treated with either control (DMSO), PLC inhibitor edelfosine (EDEL) or its active analog miltefosine (MILT). Steady-state PIP2 levels were determined by HPLC.

The test system of another assay is PIP2. The experiment in a line: Steady-state PIP2 levels determined by HPLC in HeLa cells overexpressing APPsw. Format: cell-based. As to conditions: HeLa cells stably overexpressing Swedish variant of human APP.
From the text: as §1

For assay [2], the system named is Aβ42. The experiment in a line: Aβ42 versus Aβ40 production in cell lines treated with ginsenosides. It is filed as cell-based. The settings on record: cell lines and primary neurons. From the text:
(§2) Of note, γ-secretase inhibitors and non-steroidal anti-inflammatory drugs were not found to reverse these CCE defects (FIG. 17A-B). Ginsenosides such as (20S)Rg3 may therefore, unlike other Aβ42-lowering agents, also ameliorate the defect in CCE associated with Aβ. The following data support the role of PLCγ1 as a common upstream target modulating CCE as well as Aβ42 levels.

The test system of assay [3] is Aβ42. The experiment in a line: Aβ42 in cultured hippocampal primary neurons from Tg2576 mice. It is filed as cell-based, mouse. As to conditions: for Aβ42 in cultured hippocampal primary neurons: primary neurons from Tg2576 mice.
From the text: FIG. 15A-B. (A) Rk1 and (20S)Rg3 decrease Aβ42 in cultured hippocampal primary neurons from Ad-model Tg2576 mice.
as §2

The test system of a further assay is Tg2576 mice. The experiment in a line: Aβ42/Aβ40 ratio in brains of Tg2576 mice. As to conditions: Tg2576 transgenic mice. Format: in vivo, mouse.
Another assay concerns hippocampal slices. The experiment in a line: Long-term potentiation (fEPSP slope) in hippocampal slices treated with Aβ42. From the text:
FIG. 5. […] The field excitatory post synaptic potential slope (FEPSP slope) in hippocampal slices that were untreated or treated with Aβ42 (Aβ) or Aβ42 and 20(S)Rg3 was monitored over time.
PIP2 modulation rescues Aβ oligomer-induced synaptic dysfunction.

For assay [4], the system named is Aβ42. The assay is described as follows: Aβ42 ELISA in Hela-APPsw cells transfected with siRNA against PLC isoforms and treated with Rg3. Format: cell-based, human. The procedure:
FIG. 18A-B. Role of PLC γ1 in Aβ42-lowering activity of ginsenosides. (A) Hela-APPsw cells transfected with specific siRNA against PLCβ3, PLC γ1 and PLC γ2 were treated with either DMSO or 15 μM Rg3 for 6 hr. The down regulation of PLCβ3, PLCγ1 and PLCγ2 was confirmed by Western blot using isoform-specific antibodies. (B) Effects of RNAi-mediated downregulation of PLC isoforms in the presence of Rg3 treatment. Aβ42 levels were measured in the conditioned media by ELISA. Aβ values are shown as percentage of control siRNA and are the mean ±s.d. from three independent experiments (*P<0.001, **P<0.01 using ANOVA followed by Dunnett's test). (77,78)
Hela cells stably expressing Swedish FAD mutant APP (Hela-APPsw cells) were treated with small interfering RNA (siRNA) selective against various PLCβ(β1-4) and PLCγ (γ1, 2) isoforms.

The test system of the next assay is α-secretase (sAPPα). The experiment in a line: Secreted APP ectodomain generated by α-secretase (sAPPα) in conditioned media of HeLa APPsw cells. It is filed as cell-based, human. The settings on record: HeLa cells stably expressing APPsw. The method, then:
(§3) FIG. 3A-F. PIP2 levels modulate Aβ biogenesis via two mechanisms. PIP2 levels modulate the release of soluble APP ectodomain into the medium. HeLa cells stably expressing APPsw were treated with either PLC inhibitors (EDEL, MILT) or PLC activator (M3M). Conditioned cell media were analyzed for secreted APP ectodomains generated by α-(sAPPα) (A) and β-secretase (sAPPβ) (B) cleavage. Aβ42 (D) and total Aβ biogenesis (C) in HEK293 cells transiently transfected with C99, C-terminal stub of APP that serves as a direct γ-secretase substrate, in the presence of PIP2 level modulator, EDEL. Aβ42 (F) and total Aβ biogenesis (E) in HEK293 cells transiently transfected with C99, C-terminal stub of APP that serves as a direct γ-secretase substrate, in the presence of PIP2 level modulator, M3M.
(§4) PIP2 levels modulate Aβ biogenesis via two distinct mechanisms. The metabolites of PIP2, including IP3 and DAG, have been implicated in APP processing pathways (69, 70, 71). Under normal conditions, PIP2 hydrolysis (to generate IP3 and DAG) favors the generation of α-secretase-generated secreted APP ectodomain (sAPPα). […] To more clearly define the role of PIP2 in modulating γ-secretase activity (e.g. Aβ42), we next expressed an APP-C99 construct, an ectopic γ-secretase substrate which resembles β-secretase-generated, membrane-associated APP stub in heterologous cells.

The subject of the next assay is β-secretase (sAPPβ). The experiment in a line: Secreted APP ectodomain generated by β-secretase (sAPPβ) in conditioned media of HeLa APPsw cells. It is filed as cell-based, human. As to conditions: HeLa cells stably expressing APPsw. The method, then: as §3, §4
Assay [5] has as its system presenilin/γ-secretase (Aβ42). The experiment in a line: Aβ42 biogenesis in HEK293 cells transiently transfected with C99 (direct γ-secretase substrate). Format: cell-based. The method, then:
as §3, §4

The subject of another assay is full-length APP (FL-APP). The assay is described as follows: Steady-state full-length APP by Western blot in treated HeLa APPsw cells. Format: cell-based, human. The settings on record: Western blot analysis. The method, then:
Full length APP and total Aβ biogenesis are not affected in treated cells. Modulation of PIP2 levels correlates with Aβ42 biogenesis. HeLa cells stably overexpressing the Swedish variant of human APP were treated with either control (DMSO), PLC inhibitor edelfosine (EDEL) or its active analog miltefosine (MILT). Steady-state PIP2 levels were determined by HPLC.
Background: A western blot detects proteins with antibodies after separation by electrophoresis.

Regarding `CCCCCCCCCCCCCCCCCCOCC(COP(=O)([O-])OCC[N+](C)(C)C)OC` (stereo not shown) [edelfosine, Edelfosine], the “decrease in the levels of Aβ42” value in the assay on Aβ42 [1] (vs control (DMSO)) turned out to be 37.3%. In the assay on PIP2 (vs control (DMSO)), the “increase in the steady-state levels of PIP2” value was ~10%.

In the case of `CC(C)=CCC[C@](C)(O)[C@H]1CC[C@]2(C)[C@@H]1[C@H](O)C[C@@H]1[C@@]3(C)CC[C@H](O[C@@H]4O[C@H](CO)[C@@H](O)[C@H](O)[C@H]4O[C@@H]4O[C@H](CO)[C@@H](O)[C@H](O)[C@H]4O)C(C)(C)[C@@H]3CC[C@]12C` [(20S)Rg3], the “Aβ37 and Aβ38” value in the assay with Aβ42 [2] was “concomitant increase”. The “Aβ42 production relative to Aβ40” value in the assay with Aβ42 [2] is given as “preferentially lower the production of Aβ42; also recorded: also selectively decreases Aβ42 relative to Aβ40”. Besides, in the assay with Aβ42 [3] (cultured neurons), the “Aβ42/Aβ40 ratio in cultured neurons” value is on record as “decreased Aβ42/Aβ40 ratio”. For the same compound, the “Aβ42 in cultured hippocampal primary neurons” value with Aβ42 [3] is given as “decrease Aβ42”. Also, the “Aβ42/Aβ40 ratio in the brains” value is “decreases the ratio of Aβ42 to Aβ40” in the assay on Tg2576 mice and “decreased Aβ42/Aβ40 ratio” in the assay on Tg2576 mice (listed as Rg3). For the same compound, the results for the “long-term potentiation (fEPSP slope) in the presence of Aβ42” value in the assay with hippocampal slices, in the assay on hippocampal slices (listed as 20(S)Rg3) and with hippocampal slices (listed as SMT-3) were “blocks Abeta oligomer-induced inhibition of long-term potentitation”, “increases LTP expression relative to untreated hippocampal slices” and “blocks Aβ42 oligomer-induced synaptic dysfunction”, respectively. For the same compound, the “Aβ42-lowering effect with PLCβ3 expression inhibited by siRNA” value in the assay with Aβ42 [4] (15 μM Rg3 for 6 hr, PLCβ3 siRNA) was “nearly abolished”. Further, the “Aβ42-lowering effect with PLCγ1 expression inhibited by siRNA” value in the assay with Aβ42 [4] (15 μM Rg3 for 6 hr, PLCγ1 siRNA) is “nearly abolished”. Moreover, the “reduction of Aβ42 generation when PLCγ1 levels are suppressed (dose-response experiments)” value in the assay with Aβ42 [4] (PLCγ1 suppressed) is reported as “far less effective”.

Consider `CCCCCCCCCCCCCCCCOP(=O)([O-])OCC[N+](C)(C)C` [miltefosine], for which, in the assay with α-secretase (sAPPα), the sAPPα generation entry was “increases in sAPPα generation”. Moreover, the sAPPβ secretion result in the assay with β-secretase (sAPPβ) is listed as “reduction in sAPPβ secretion”.

Consider `C=C(CCC=C(C)C)[C@H]1CC[C@]2(C)[C@@H]1[C@H](O)C[C@@H]1[C@@]3(C)CC[C@H](O[C@@H]4O[C@H](CO)[C@@H](O)[C@H](O)[C@H]4O[C@@H]4O[C@H](CO)[C@@H](O)[C@H](O)[C@H]4O)C(C)(C)[C@@H]3CC[C@]12C` [Rk1], for which, in the assay on Aβ42 [2], the “Aβ37 and Aβ38” value is recorded as “concomitant increase”; the “Aβ42 production relative to Aβ40” value is recorded as “preferentially lower the production of Aβ42; also recorded: selectively decreases Aβ42 relative to Aβ40”. In addition, in the assay on Aβ42 [3], the “Aβ42 in cultured hippocampal primary neurons” value is “decrease Aβ42”.

Consider `Cc1cc(C)c(S(=O)(=O)Nc2cccc(C(F)(F)F)c2)c(C)c1` [m-3m3FBS], for which the “effect on Aβ42 in C99-transfected cells” value in assay [5] is “Aβ42-promoting activity”. Moreover, the sAPPα generation result in the assay on α-secretase (sAPPα) is “decreases in sAPPα”. Besides, in the assay on Aβ42 [1], the “increase in Aβ42” value came to 37.2%. Further, the sAPPβ secretion entry in the assay with β-secretase (sAPPβ) is listed as “dramatic increase”. Further, the “effect on steady-state levels of full-length APP (FL-APP)” value in the assay with full-length APP (FL-APP) is reported as “No significant effects”. For the same compound, the “decrease in the steady state levels of PIP2” value with PIP2 is listed as ~11%.
